Data taken from patent US11053204B2, “Pyrimidinyloxy benzene derivatives as herbicides” (FMC Corporation, priority 2015, dated 2021).

Assays:
Type in all cases: in vivo
[1] = test system: wheat (winter wheat, Triticum aestivum); experiment: Test C postemergence, plant response rating; conditions: Triticum aestivum, post-emergence
Procedure, shortened: (§1)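 Pre-emergence: seeds sown in loam soil–sand blend or silt loam and sprayed with test chemicals in a non-phytotoxic solvent mixture with surfactant. Post-emergence: plants 2 to 18 cm (1- to 4-leaf stage) in peat-based potting medium, same formulation. Greenhouse 13 to 15 d; visual rating 0 (no effect) to 100 (complete control) versus controls.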

[2] = test system: lambsquarters (Chenopodium album); experiment: Test C postemergence, plant response rating; conditions: Chenopodium album, post-emergence
Procedure, shortened: as §1

soybean (Glycine max) = experiment: Test C postemergence, plant response rating; conditions: Glycine max, post-emergence
Procedure, shortened: as §1

[3] = test system: oat, wild (wild oat Avena fatua); experiment: Test C postemergence, plant response rating; conditions: Avena fatua, post-emergence
Procedure, shortened: as §1

[4] = test system: barnyardgrass (Echinochloa crus-galli); experiment: Test C postemergence, plant response rating; conditions: Echinochloa crus-galli, post-emergence
Procedure, shortened: as §1

[5] = test system: ryegrass, Italian (Italian ryegrass, Lolium multiflorum); experiment: Test C postemergence, plant response rating; conditions: Lolium multiflorum, post-emergence
Procedure, shortened: as §1

corn (Zea mays) = experiment: Test C postemergence, plant response rating; conditions: Zea mays, post-emergence
Procedure, shortened: as §1

[6] = test system: crabgrass, large (large crabgrass, Digitaria sanguinalis); experiment: Test C postemergence, plant response rating; conditions: Digitaria sanguinalis, post-emergence
Procedure, shortened: as §1

[7] = test system: oilseed rape (Brassica napus); experiment: Test C postemergence, plant response rating; conditions: Brassica napus, post-emergence
Procedure, shortened: as §1

[8] = test system: velvetleaf (Abutilon theophrasti); experiment: Test C postemergence, plant response rating; conditions: Abutilon theophrasti, post-emergence
Procedure, shortened: as §1

[9] = test system: foxtail, giant (giant foxtail, Setaria faberii); experiment: Test C postemergence, plant response rating; conditions: Setaria faberi, post-emergence
Procedure, shortened: as §1

[10] = test system: nutsedge, yellow (yellow nutsedge, Cyperus esculentus); experiment: Test C postemergence, plant response rating; conditions: Cyperus, post-emergence
Procedure, shortened: as §1

[11] = test system: ragweed (common ragweed, Ambrosia elatior); experiment: Test C postemergence, plant response rating; conditions: Ambrosia artemisiifolia, post-emergence
Procedure, shortened: as §1

[12] = test system: blackgrass (Alopecurus myosuroides); experiment: Test C postemergence, plant response rating; conditions: Alopecurus myosuroides, post-emergence
Procedure, shortened: as §1

[13] = test system: galium (catchweed bedstraw, Galium aparine); experiment: Test C postemergence, plant response rating; conditions: Galium, post-emergence
Procedure, shortened: as §1

[14] = test system: pigweed (Amaranthus retroflexus); experiment: Test C preemergence, plant response rating; conditions: scale 0 to 100; for Plant response rating, Pigweed: Preemergence; for Pigweed plant response rating: preemergence

Work on `CCCOC(=O)c1c(Br)cccc1Oc1ncc(Cl)cn1` [Compound 13, propyl 2-bromo-6-[(5-chloro-2-pyrimidinyl)oxy]benzoate] yielded a plant injury at 4 g/ha ([1]; 4 g ai/ha, scale of 0 to 100) of 0%, a plant injury at 8 g/ha ([1]; 8 g ai/ha, scale of 0 to 100) of 0% and a plant injury at 16 g/ha ([1]; 16 g ai/ha, scale 0 to 100) of 0%. For the same molecule, the plant injury at 31 g/ha ([1]; 31 g ai/ha, scale 0 to 100) was 0%, the pest or weed control at 4 g/ha ([2]; 4 g ai/ha, scale of 0 to 100) was 30% and the pest or weed control at 8 g/ha ([2]; 8 g ai/ha, scale of 0 to 100) was 60%. The pest or weed control at 16 g/ha ([2]; 16 g ai/ha, scale 0 to 100) was 50%, the pest or weed control at 31 g/ha ([2]; 31 g ai/ha, scale 0 to 100) was 55% and the plant injury at 4 g/ha (soybean (Glycine max); 4 g ai/ha, scale of 0 to 100) was 15%. The plant injury at 8 g/ha (soybean (Glycine max); 8 g ai/ha, scale of 0 to 100) was 20%, the plant injury at 16 g/ha (soybean (Glycine max); 16 g ai/ha, scale 0 to 100) was 30% and the plant injury at 31 g/ha (soybean (Glycine max); 31 g ai/ha, scale 0 to 100) was 35%. The pest or weed control at 4 g/ha ([3]; 4 g ai/ha, scale of 0 to 100) was 0%, the pest or weed control at 8 g/ha ([3]; 8 g ai/ha, scale of 0 to 100) was 0% and the pest or weed control at 16 g/ha ([3]; 16 g ai/ha, scale 0 to 100) was 0%. It also gave a pest or weed control at 31 g/ha ([3]; 31 g ai/ha, scale 0 to 100) of 5%, a pest or weed control at 4 g/ha ([4]; 4 g ai/ha, scale of 0 to 100) of 5% and a pest or weed control at 8 g/ha ([4]; 8 g ai/ha, scale of 0 to 100) of 5%. For the same molecule, the pest or weed control at 16 g/ha ([4]; 16 g ai/ha, scale 0 to 100) was 10%, the pest or weed control at 31 g/ha ([4]; 31 g ai/ha, scale 0 to 100) was 10% and the pest or weed control at 4 g/ha ([5]; 4 g ai/ha, scale of 0 to 100) was 0%. For the same molecule, the pest or weed control at 8 g/ha ([5]; 8 g ai/ha, scale of 0 to 100) was 0%, the pest or weed control at 16 g/ha ([5]; 16 g ai/ha, scale 0 to 100) was 0% and the pest or weed control at 31 g/ha ([5]; 31 g ai/ha, scale 0 to 100) was 0%. It also gave a Corn plant response rating (crop injury, 0 = no effect, 100 = complete kill) at 4 g/ha (corn (Zea mays); 4 g ai/ha, scale of 0 to 100) of 5%, a Corn plant response rating (crop injury, 0 = no effect, 100 = complete kill) at 8 g/ha (corn (Zea mays); 8 g ai/ha, scale of 0 to 100) of 5% and a Corn plant response rating (crop injury, 0 = no effect, 100 = complete kill) at 16 g/ha (corn (Zea mays); 16 g ai/ha, scale 0 to 100) of 10%. For the same molecule, the Corn plant response rating (crop injury, 0 = no effect, 100 = complete kill) at 31 g/ha (corn (Zea mays); 31 g ai/ha, scale 0 to 100) was 5%, the pest or weed control at 4 g/ha ([6]; 4 g ai/ha, scale of 0 to 100) was 5% and the pest or weed control at 8 g/ha ([6]; 8 g ai/ha, scale of 0 to 100) was 5%. It also gave a pest or weed control at 16 g/ha ([6]; 16 g ai/ha, scale 0 to 100) of 5%, a pest or weed control at 31 g/ha ([6]; 31 g ai/ha, scale 0 to 100) of 15% and a plant injury at 4 g/ha ([7]; 4 g ai/ha, scale of 0 to 100) of 0%. For the same molecule, the plant injury at 8 g/ha ([7]; 8 g ai/ha, scale of 0 to 100) was 0%, the plant injury at 16 g/ha ([7]; 16 g ai/ha, scale 0 to 100) was 0% and the plant injury at 31 g/ha ([7]; 31 g ai/ha, scale 0 to 100) was 35%. It also gave a pest or weed control at 4 g/ha ([8]; 4 g ai/ha, scale of 0 to 100) of 15%, a pest or weed control at 8 g/ha ([8]; 8 g ai/ha, scale of 0 to 100) of 15% and a pest or weed control at 16 g/ha ([8]; 16 g ai/ha, scale 0 to 100) of 20%. For the same molecule, the pest or weed control at 31 g/ha ([8]; 31 g ai/ha, scale 0 to 100) was 25%, the pest or weed control at 4 g/ha ([9]; 4 g ai/ha, scale of 0 to 100) was 5% and the pest or weed control at 8 g/ha ([9]; 8 g ai/ha, scale of 0 to 100) was 5%. The pest or weed control at 16 g/ha ([9]; 16 g ai/ha, scale 0 to 100) was 10%, the pest or weed control at 31 g/ha ([9]; 31 g ai/ha, scale 0 to 100) was 25% and the pest or weed control at 4 g/ha ([10]; 4 g ai/ha, scale of 0 to 100) was 0%. For the same molecule, the pest or weed control at 8 g/ha ([10]; 8 g ai/ha, scale of 0 to 100) was 0%, the pest or weed control at 16 g/ha ([10]; 16 g ai/ha, scale 0 to 100) was 5% and the pest or weed control at 31 g/ha ([10]; 31 g ai/ha, scale 0 to 100) was 5%. The pest or weed control at 4 g/ha ([11]; 4 g ai/ha, scale of 0 to 100) was 5%, the pest or weed control at 8 g/ha ([11]; 8 g ai/ha, scale of 0 to 100) was 5% and the pest or weed control at 16 g/ha ([11]; 16 g ai/ha, scale 0 to 100) was 5%. It also gave a pest or weed control at 31 g/ha ([11]; 31 g ai/ha, scale 0 to 100) of 5%, a pest or weed control at 4 g/ha ([12]; 4 g ai/ha, scale of 0 to 100) of 0% and a pest or weed control at 8 g/ha ([12]; 8 g ai/ha, scale of 0 to 100) of 0%. For the same molecule, the pest or weed control at 16 g/ha ([12]; 16 g ai/ha, scale 0 to 100) was 0%, the pest or weed control at 31 g/ha ([12]; 31 g ai/ha, scale 0 to 100) was 5% and the pest or weed control at 4 g/ha ([13]; 4 g ai/ha, scale of 0 to 100) was 10%. The pest or weed control at 8 g/ha ([13]; 8 g ai/ha, scale of 0 to 100) was 5%, the pest or weed control at 16 g/ha ([13]; 16 g ai/ha, scale 0 to 100) was 65% and the pest or weed control at 31 g/ha ([13]; 31 g ai/ha, scale 0 to 100) was 50%. The “Plant response rating, Pigweed” value ([14]; 16 g ai/ha) was 5, the “Plant response rating, Pigweed” value ([14]; 31 g ai/ha) was 60 and the “Pigweed plant response rating” value ([14]; 4 g ai/ha) was 5. The “Pigweed plant response rating” value ([14]; 8 g ai/ha) was 10.
